PMC7463537, “Synthesis and Evaluation of Antimicrobial and Cytotoxic Activity of Oxathiine-Fused Quinone-Thioglucoside Conjugates of Substituted 1,4-Naphthoquinones” (Molecules, 2020)

Assays:
S. aureus ATCC 21027 = assay: Agar diffusion method, S. aureus; format: cell-based, Staphylococcus aureus; conditions: for zone of inhibition at 100 µg/disc: Staphylococcus aureus, ATCC21027, 24 h, 100 µg/well, 24 h, incl. 7 mm well, read-out: Diameter of Zone Inhibition, S. aureus
Experimental: (§1) Elyakov Pacific Institute of Bioorganic Chemistry, Far East Branch, Russian Academy of Sciences. Test substances were dissolved in DMSO at concentrations of 1.0, 0.1, and 0.01 mg/mL. All strains were grown on trypticase-soy agar TSA (BBL) at 37 °C. […] After incubation of the dishes at 37 °C for 24 h (for bacteria) and 48 h (for the fungus) at 28 °C, the diameters of the growth inhibition zones of pathogenic microorganisms (mm) were measured, including the diameter of the wells. Commercial antibacterial drugs (vancomicin and gentamicin) and antifungal (clotrimazol) drugs were used as positive controls.

B. cereus ATCC 10702 = assay: Agar diffusion method, B. cereus; format: cell-based, Bacillus cereus; conditions: for zone of inhibition at 100 µg/disc: Bacillus cereus, ATCC10702, 24 h, 100 µg/well, 24 h, incl. 7 mm well, read-out: Diameter of Zone Inhibition, B. cereus
Experimental: as §1

P. aeruginosa ATCC 27853 = assay: Agar diffusion method, P. aeruginosa; format: cell-based, Pseudomonas aeruginosa; conditions: for zone of inhibition at 100 µg/disc: Pseudomonas aeruginosa, ATCC27853, 100 µg/well, read-out: Diameter of Zone Inhibition, P. aeruginosa
Experimental: as §1

E. coli K-12 = assay: Agar diffusion method, E. coli; format: cell-based, Escherichia coli; conditions: for zone of inhibition at 100 µg/disc: Escherichia coli, K12, 100 µg/well, read-out: Diameter of Zone Inhibition, E. coli
Experimental: as §1

C. albicans KMM 453 = assay: Agar diffusion method, C. albicans; format: cell-based; conditions: Candida albicans, read-out: Diameter of Zone Inhibition, C. albicans; for zone of inhibition at 100 µg/disc: KMM453, 48 h, 100 µg/well, 48 h at 28 °C
Experimental: as §1

[1] = test system: human cervical cancer (HeLa); assay: Cytotoxicity, MTT assay, HeLa cells; conditions: for EC50: Homo sapiens, HeLa, 24 h, read-out: Cytotoxicity (EC50), HeLa; for Selectivity Index (SI), HeLa: SI = EC50 (Jb6 Cl 41-5a normal cells)/EC50 (tumor cells)
[2] = test system: mouse neuroblastoma (Neuro 2a); assay: Cytotoxicity, MTT assay, Neuro 2a cells; conditions: for EC50: N2a, 24 h, read-out: Cytotoxicity (EC50), Neuro 2a; for Selectivity Index (SI), Neuro-2a: SI = EC50 (Jb6 Cl 41-5a normal cells)/EC50 (tumor cells)
[3] = Cytotoxicity, MTT assay, Jb6 Cl 41-5a normal epithelial cells; conditions: mouse, Jb6 Cl 41-5a normal epithelial cells
[4] = test system: mouse ascites Ehrlich carcinoma; assay: Cytotoxicity, nonspecific esterase (FDA) assay, ascites Ehrlich carcinoma cells; conditions: for EC50: Mus musculus, Ehrlich, 24 h, read-out: Cytotoxicity (EC50), Ascites Ehrlich Carcinoma; for Selectivity Index (SI), Ascitic Ehrlich Carcinoma: SI = EC50 (Jb6 Cl 41-5a normal cells)/EC50 (tumor cells)

O=C1C2=C(S[C@@H]3OC[C@@H](O)[C@H](O)[C@H]3O2)C(=O)c2c(O)cccc21 [Compound 19c, (3R,4S,4aR,12aS)-3,4,10-Trihydroxy-3,4,4a,12a-tetrahydro-2H-naphtho[2,3-b]pyrano[2,3-e][2,5]oxathiine-6,11-dione]
zone of inhibition at 100 µg/disc (S. aureus ATCC 21027): 8 ± 1 mm | zone of inhibition at 100 µg/disc (B. cereus ATCC 10702): 10 ± 2 mm | zone of inhibition at 100 µg/disc (P. aeruginosa ATCC 27853): 0 mm | zone of inhibition at 100 µg/disc (E. coli K-12): 0 mm | zone of inhibition at 100 µg/disc (C. albicans KMM 453): 0 mm | melting point: 348 to 350 °C (dec.) | EC50 [1]: 4.9 µM | Selectivity Index (SI), HeLa [1]: 1.2 | EC50 [2]: 13.3 µM | Selectivity Index (SI), Neuro-2a [2]: 0.4 | EC50 at 24 h [3]: 5.9 µM | EC50 [4]: 7.4 µM | Selectivity Index (SI), Ascitic Ehrlich Carcinoma [4]: 0.8

COc1c(Cl)c(Cl)c(OC)c2c1C(=O)C1=C(S[C@@H]3O[C@H](CO)[C@H](O)[C@H](O)[C@H]3O1)C2=O [Compound 18b, (2R,3R,4S,4aR,12aS)-8,9-Dichloro-3,4-dihydroxy-2-(hydroxymethyl)-7,10-dimethoxy-3,4,4a,12a-tetrahydro-2H-naphtho[2,3-b]pyrano[2,3-e][2,5]oxathiine-6,11-dione]
zone of inhibition at 100 µg/disc (S. aureus ATCC 21027): 0 mm | zone of inhibition at 100 µg/disc (B. cereus ATCC 10702): 0 mm | zone of inhibition at 100 µg/disc (P. aeruginosa ATCC 27853): 0 mm | zone of inhibition at 100 µg/disc (E. coli K-12): 0 mm | zone of inhibition at 100 µg/disc (C. albicans KMM 453): 0 mm | melting point: 276 to 279 °C | EC50 [1]: 8 µM | Selectivity Index (SI), HeLa [1]: 0.4 | EC50 [2]: 2.9 µM | Selectivity Index (SI), Neuro-2a [2]: 1 | EC50 at 24 h [3]: 2.9 µM | EC50 [4]: 1.1 µM | Selectivity Index (SI), Ascitic Ehrlich Carcinoma [4]: 2.6

COc1ccc(OC)c2c1C(=O)C1=C(S[C@@H]3OC[C@@H](O)[C@H](O)[C@H]3O1)C2=O [Compound 17c, (3R,4S,4aR,12aS)-3,4-Dihydroxy-7,10-dimethoxy-3,4,4a,12a-tetrahydro-2H-naphtho[2,3-b]pyrano[2,3-e][2,5]oxathiine-6,11-dione]
zone of inhibition at 100 µg/disc (S. aureus ATCC 21027): 0 mm | zone of inhibition at 100 µg/disc (B. cereus ATCC 10702): 0 mm | zone of inhibition at 100 µg/disc (P. aeruginosa ATCC 27853): 0 mm | zone of inhibition at 100 µg/disc (E. coli K-12): 0 mm | zone of inhibition at 100 µg/disc (C. albicans KMM 453): 0 mm | melting point: 329 to 332 °C | EC50 [1]: > 25 µM | EC50 [2]: > 25 µM | EC50 at 24 h [3]: > 25 µM | EC50 [4]: > 25 µM

Clc1ccccc1C(c1ccccc1)(c1ccccc1)n1ccnc1 [Clotrimazol (disk), reference compound]
zone of inhibition at 10 µg/disc (C. albicans KMM 453; KMM453, 10 µg (disk)): 15 ± 2 mm

CN[C@H](CC(C)C)C(=O)N[C@H]1C(=O)N[C@@H](CC(N)=O)C(=O)N[C@H]2C(=O)N[C@H]3C(=O)N[C@H](C(=O)N[C@H](C(=O)O)c4cc(O)cc(O)c4-c4cc3ccc4O)[C@H](O)c3ccc(c(Cl)c3)Oc3cc2cc(c3O[C@@H]2O[C@H](CO)[C@@H](O)[C@H](O)[C@H]2O[C@H]2C[C@](C)(N)[C@H](O)[C@H](C)O2)Oc2ccc(cc2Cl)[C@H]1O [Vancomicin (disk), reference compound]
Diameter of Zone Inhibition, S. aureus (S. aureus ATCC 21027; 30 µg (disk)): 20 ± 2 mm | Diameter of Zone Inhibition, B. cereus (B. cereus ATCC 10702; 30 µg (disk)): 20 ± 3 mm | Diameter of Zone Inhibition, P. aeruginosa (P. aeruginosa ATCC 27853; 30 µg (disk)): 0 mm | Diameter of Zone Inhibition, E. coli (E. coli K-12; 30 µg (disk)): 0 mm
